“Also recorded” adds a separate entry of the source.
What was measured:
dogs = assay: Gradual hypotension during anesthesia in dogs (hemodynamics, blood gas); assay type: in vivo, mongrel dogs; conditions: dog
Experimental: Dogs were anesthetized with enflurane. […] The mean blood pressure (B.P.), heart rate (H.R.), cardiac output (C.O.), arterial oxygen tension (PaO2), mixed venos oxygen tension (PvO2), arterial carbonate tension (PaCO2), mixed venous carbonate tension (PvCO2), arterial pH (pH-a), mixed venous pH (pH-v), and base excess thereof were measured.
Mongrel dogs weighing 9 to 17 kg were anesthetized with intravenous thiopental 20 mg/kg by bolus injection, followed by 1% enflurane in 40% O2 /N2 after endotracheal intubation. […] Bilateral femoral arteries were catheterized, one for the determination of blood pressure and the other for blood sampling.
Access to the bilateral femoral veins was obtained for the administration of Ap4A, PG E1 or nitroglycerin and for the insertion of a ballon-tipped thermodilution catheter. The electrocardiogram was continuously monitored. The control values were obtained before the administration of each of the above-mentioned three agents. Each agent was administered using a syringe pump at titrated doses to produce gradual 20%, 40%, 50%, 60%, and 80% decreases in the mean arterial pressure (MAP) from the control value.
After the target blood pressure and stable hemodynamic conditions were reached, the following parameters were measured: heart rate (HR), mean pulmonary artery pressure (PAM), pulmonary capillary wedge pressure (PCWP), and central venous pressure (CVP). Cardiac output (CO) was determined by the thermodilution method. Gas analyses of arterial and mixed venous bloods were performed using a blood gas analyzer.

rats = assay: Recovery of blood pressure after gradual hypotension in rats; assay type: in vivo, male SD rats; conditions: rat
Experimental: FIG. 1 is a graph showing the recovery of the blood pressure of rats anesthetized with enflurane with time, when each of Ap4A ( ), PG E1 ( ) and nitroglycerin ( ) was used as a test drug to attain gradual hypotension, with the blood pressure before the administration of each test drug being set 100% for reference.
The recovery of blood pressure after gradual hypotension by use of each of Ap4A, PG E1 and nitroglycerin was also tested.
The control values were obtained before the administration of each test drug. Each test drug was then administered using a syringe in a dose-dependent manner for 15 minutes. The percentage (%) of the decrease of blood pressure was determined when stabilized. Changes in heart rate (H.R.) at the administration of each test drug were measured. Furthermore,the recovery of mean blood pressure after intravenous infusion of each test drug was also determined from the decrease in heart rate and the blood pressure at a maximum dose of each test drug.
In a test similar to the above, each of Ap4A, PG E1, and nitroglycerin was administered to rats, so that about 65% fall in blood pressure, about 55% fall in blood pressure, and about 35% fall in blood pressure were stepwise attained. With respect to each agent, the recovery of blood pressure was tested.

[1] = enflurane, at -20% blood pressure
[2] = enflurane, at -40% blood pressure
[3] = enflurane, at -50% blood pressure
[4] = enflurane, at -60% blood pressure
[5] = enflurane, at -80% blood pressure

SMILES: Nc1ncnc2c1ncn2[C@@H]1O[C@H](COP(=O)(O)OP(=O)(O)OP(=O)(O)OP(=O)(O)OC[C@H]2O[C@@H](n3cnc4c(N)ncnc43)[C@H](O)[C@@H]2O)[C@@H](O)[C@H]1O [Ap4A, diadenosine 5',5'"-p^1,p^4 -tetraphosphate]
- fall in blood pressure attainable (dogs; enflurane): ~60%
- Arterial Carbonate Tension PaCO2 (dogs; [1]): 36.0 ± 1.0 mmHg
- Arterial Oxygen Tension PaO2 (dogs; [1]): 252.8 ± 7.2 mmHg
- Arterial pH (pH-a) (dogs; [1]): 7.337 ± 0.013
- Body Temperature BT (dogs; [1]): 37.2 ± 0.6 °C
- Cardiac Output C.O. (dogs; [1]): 2.42 ± 0.25 L/min
- Central Venous Pressure CVP (dogs; [1]): 3.77 ± 0.25 mmHg
- Heart Rate H.R. (dogs; [1]): 160.1 ± 7.5 beats/min
- Hematocrit Value Hct (dogs; [1]): 40.6 ± 2.1%
- Mean Blood Pressure B.P. (mean) (dogs; [1]): 104.3 ± 3.3
- Mean Blood Pressure B.P. (Δ%) (dogs; [1]): -19.8 ± 0.4%
- Mixed Venous Carbonate Tension PvCO2 (dogs; [1]): 39.3 ± 1.2 mmHg
- Mixed Venous Oxygen Tension PvO2 (dogs; [1]): 61.6 ± 2.4 mmHg
- Mixed Venous pH (pH-v) (dogs; [1]): 7.308 ± 0.008
- Pulmonary Artery Pressure PAM (dogs; [1]): 18.4 ± 1.5 mmHg
- Pulmonary Capillary Wedge Pressure PCWP (dogs; [1]): 8.3 ± 1.3 mmHg
- Base Excess BE (dogs; enflurane, at -20% blood pressure (Table 1)): -5.39 ± 0.77 mBq-1
- Arterial Carbonate Tension PaCO2 (dogs; [2]): 35.3 ± 1.0 mmHg
- Arterial Oxygen Tension PaO2 (dogs; [2]): 253.8 ± 7.6 mmHg
- Arterial pH (pH-a) (dogs; [2]): 7.341 ± 0.018
- Body Temperature BT (dogs; [2]): 37.3 ± 0.6 °C
- Cardiac Output C.O. (dogs; [2]): 2.22 ± 0.15 L/min
- Central Venous Pressure CVP (dogs; [2]): 3.89 ± 0.29 mmHg
- Heart Rate H.R. (dogs; [2]): 154.9 ± 6.9 beats/min
- Hematocrit Value Hct (dogs; [2]): 40.6 ± 1.7%
- Mean Blood Pressure B.P. (mean) (dogs; [2]): 78.2 ± 2.3
- Mean Blood Pressure B.P. (Δ%) (dogs; [2]): -39.8 ± 0.4%
- Mixed Venous Carbonate Tension PvCO2 (dogs; [2]): 36.6 ± 1.3 mmHg
- Mixed Venous Oxygen Tension PvO2 (dogs; [2]): 63.3 ± 1.7 mmHg
- Mixed Venous pH (pH-v) (dogs; [2]): 7.311 ± 0.009
- Pulmonary Artery Pressure PAM (dogs; [2]): 17.8 ± 1.6 mmHg
- Pulmonary Capillary Wedge Pressure PCWP (dogs; [2]): 8.0 ± 1.2 mmHg
- Base Excess BE (dogs; enflurane, at -40% blood pressure (Table 1)): -5.52 ± 0.89 mBq-1
- Arterial Carbonate Tension PaCO2 (dogs; [3]): 35.0 ± 1.1 mmHg
- Arterial Oxygen Tension PaO2 (dogs; [3]): 252.5 ± 7.5 mmHg
- Arterial pH (pH-a) (dogs; [3]): 7.338 ± 0.011
- Body Temperature BT (dogs; [3]): 37.2 ± 0.6 °C
- Cardiac Output C.O. (dogs; [3]): 2.02 ± 0.16 L/min
- Central Venous Pressure CVP (dogs; [3]): 3.64 ± 0.35 mmHg
- Heart Rate H.R. (dogs; [3]): 144.0 ± 7.3 beats/min
- Hematocrit Value Hct (dogs; [3]): 40.7 ± 1.7%
- Mean Blood Pressure B.P. (mean) (dogs; [3]): 65.4 ± 2.0
- Mean Blood Pressure B.P. (Δ%) (dogs; [3]): -49.6 ± 0.4%
- Mixed Venous Carbonate Tension PvCO2 (dogs; [3]): 36.7 ± 1.4 mmHg
- Mixed Venous Oxygen Tension PvO2 (dogs; [3]): 60.5 ± 2.1 mmHg
- Mixed Venous pH (pH-v) (dogs; [3]): 7.308 ± 0.011
- Pulmonary Artery Pressure PAM (dogs; [3]): 16.3 ± 1.4 mmHg
- Pulmonary Capillary Wedge Pressure PCWP (dogs; [3]): 7.6 ± 1.2 mmHg
- Base Excess BE (dogs; enflurane, at -50% blood pressure (Table 1)): -5.77 ± 0.66 mBq-1
- Arterial Carbonate Tension PaCO2 (dogs; [4]): 34.6 ± 1.3 mmHg
- Arterial Oxygen Tension PaO2 (dogs; [4]): 253.8 ± 7.7 mmHg
- Arterial pH (pH-a) (dogs; [4]): 7.315 ± 0.010
- Body Temperature BT (dogs; [4]): 37.2 ± 0.6 °C
- Cardiac Output C.O. (dogs; [4]): 1.55 ± 0.20 L/min
- Central Venous Pressure CVP (dogs; [4]): 3.63 ± 0.44 mmHg
- Dose (dogs; [4]): 242.4 ± 32.8 µg/kg/min
- Heart Rate H.R. (dogs; [4]): 131.6 ± 7.5 beats/min
- Hematocrit Value Hct (dogs; [4]): 41.9 ± 2.2%
- Mean Blood Pressure B.P. (mean) (dogs; [4]): 51.7 ± 1.7
- Mean Blood Pressure B.P. (Δ%) (dogs; [4]): -60.3 ± 0.2%
- Mixed Venous Carbonate Tension PvCO2 (dogs; [4]): 38.1 ± 1.8 mmHg
- Mixed Venous Oxygen Tension PvO2 (dogs; [4]): 54.9 ± 1.8 mmHg
- Mixed Venous pH (pH-v) (dogs; [4]): 7.292 ± 0.011
- Pulmonary Artery Pressure PAM (dogs; [4]): 14.3 ± 1.1 mmHg
- Pulmonary Capillary Wedge Pressure PCWP (dogs; [4]): 6.7 ± 10.9 mmHg
- Base Excess BE (dogs; enflurane, at -60% blood pressure (Table 1)): -7.30 ± 0.64 mBq-1
- Arterial Carbonate Tension PaCO2 (dogs; [5]): 37.5 ± 1.1 mmHg
- Arterial Oxygen Tension PaO2 (dogs; [5]): 245.6 ± 9.2 mmHg
- Arterial pH (pH-a) (dogs; [5]): 7.260 ± 0.010
- Body Temperature BT (dogs; [5]): 37.4 ± 0.6 °C
- Cardiac Output C.O. (dogs; [5]): 1.16 ± 0.11 L/min
- Central Venous Pressure CVP (dogs; [5]): 3.51 ± 0.60 mmHg
- Dose (dogs; [5]): 3895.2 ± 675.7 µg/kg/min
- Heart Rate H.R. (dogs; [5]): 98.6 ± 4.7 beats/min
- Hematocrit Value Hct (dogs; [5]): 42.8 ± 2.2%
- Mean Blood Pressure B.P. (mean) (dogs; [5]): 28.8 ± 1.0
- Mean Blood Pressure B.P. (Δ%) (dogs; [5]): -77.8 ± 0.8%
- Mixed Venous Carbonate Tension PvCO2 (dogs; [5]): 44.4 ± 1.4 mmHg
- Mixed Venous Oxygen Tension PvO2 (dogs; [5]): 53.3 ± 2.8 mmHg
- Mixed Venous pH (pH-v) (dogs; [5]): 7.228 ± 0.014
- Pulmonary Artery Pressure PAM (dogs; [5]): 14.3 ± 1.2 mmHg
- Pulmonary Capillary Wedge Pressure PCWP (dogs; [5]): 7.4 ± 1.0 mmHg
- Base Excess BE (dogs; enflurane, at -80% blood pressure (Table 1)): -9.36 ± 0.79 mBq-1
- effect on arterial pH / venous pH (dogs; result in words): does not decrease arterial pH and venous pH up to a less than 60% fall in blood pressure; also recorded: does not substantially decrease arterial pH in practical use
- effect on base excess (dogs; result in words): does not make any significant changes in base excess
- effect on carbonate tension (dogs; result in words): tendency to decrease arterial carbonate tension (PaCO2), and mixed venous carbonate tension (PvCO2); also recorded: tendency to decrease arterial carbonate tension (PaCO2), mixed venous carbonate tension (PvCO2), or actually decreases PaCO2 and PvCO2
- effect on cardiac output (dogs; result in words): cardiac output is significantly increased at a 20% fall in blood pressure; also recorded: tendency to significantly increase the cardiac output when a 20% fall in blood pressure is attained, and the cardiac output is continuously increased until a 60% fall in blood pressure is attained
- effect on heart rate (dogs; result in words): when a 60% or more fall in blood pressure is attained, Ap4A is seem to have significant adverse effects on the heart rate; also recorded: significant effect on heart rate is that required for a 60% or more fall in blood pressure
- effect on oxygen tension (dogs; result in words): tendency to increase arterial oxygen tension (PaO2), and mixed venous oxygen tension (PvO2); also recorded: tendency to increase arterial oxygen tension (PaO2), and mixed venous oxygen tension (PvCO2), or actually increases PaO2 and PvO2
- hypotensive effect compared with PG E1 / nitroglycerin (dogs; result in words): the same hypotensive effect as that of PG E1; also recorded: comparable with that of PG E1 and is better than that of nitroglycerin
- recovered blood pressure (before administration = 100%) (rats; 1 minute): about 70%
- recovered blood pressure (before administration = 100%) (rats; 5 minutes): about 90%
- recovered blood pressure (before administration = 100%) (rats; 10 minutes): 100%
- fall in blood pressure attained before recovery (rats; stepwise): about 65%
- rapidness of the recovery of blood pressure (rats; order in words): Ap4A>PG E1 >nitroglycerin
- rebound hypertension (rats; result in words): without rebound hypertension

Source: patent US5380715A, “Ap4 A as a hypotensive agent” (Fujirebio Inc., priority 1992, dated 1995)
